The results in this text go back to patent US20030199516A1, “Methods of treating infection by drug resistant bacteria” (Genesoft, Inc., priority 2001, published 2003).

The test system of one assay is S. aureus ATCC 27660. Put plainly: NCCLS broth microdilution MIC. Conditions: Col. A = S. aureus ATCC 27660 (MRSA). The assay is classed as cell-based, Staphylococcus aureus. The text has this:
(§1) In vitro antibacterial activity data were collected for the following Gram-positive bacteria: Staphylococcus aureus (ATCC 27660, ATCC 33591 and ATCC 43300, all methicillin resistant strains (MRSA's)); Streptococcus pneumoniae (ATCC 51422, a penicillin resistant strain (PRSP)), Enterococcus faecium (ATCC 51559, and/or a vancomycin resistant strain (VRE)). Additionally, antifungal activity data were collected for Candida albicans (ATCC 38247). Minimal inhibition concentrations (MIC's) were determined using the National Committee for Clinical Laboratory Standards (NCCLS) broth microdilution assay in microtiter plates, as set forth in: (1) the guidelines of the National Committee for Clinical Laboratory Standards (NCCLS) Document M7-A4 (NCCLS, 1997); (2) the guidelines of the National Committee for Clinical Laboratory Standards (NCCLS) Document M11-A4 (NCCLS, 1997); and (3) the guidelines and reference method of the National Committee for Clinical Laboratory Standards (NCCLS) Document M27-T (NCCLS, 1995). For antifungal essays, the method recommended in Murray, PR., 1995 Manual of Clinical Microbiology (ASM Press, Washington, D.C.), was employed.
(Broth dilution looks for growth in wells or tubes with falling amounts of substance.)

The next assay relates to S. aureus ATCC 33591. Briefly: NCCLS broth microdilution MIC. In kind it is cell-based, Staphylococcus aureus. The settings on record: Col. B = S. aureus ATCC 33591 (MRSA).
Excerpt: as §1

The next assay deals with S. aureus ATCC 43300. Put plainly: NCCLS broth microdilution MIC. The settings on record: Col. C = S. aureus ATCC 43300 (MRSA). In kind it is cell-based, Staphylococcus aureus.
Excerpt: as §1

Assay [1] has as its system Enterococcus faecium ATCC 51559. Put plainly: NCCLS broth microdilution MIC. In kind it is cell-based. Conditions: Col. D = E. faecium ATCC 51559 (VRE).
Excerpt: as §1

Assay [2] concerns Streptococcus pneumoniae ATCC 51422. Briefly: NCCLS broth microdilution MIC. In kind it is cell-based. The settings on record: Col. E = S. pneumoniae ATCC 51422 (PRSP).
Excerpt: as §1

The subject of assay [3] is Candida albicans ATCC 38247. Briefly: Antifungal MIC. In kind it is cell-based. Conditions: Col. F = C. albicans ATCC 38247.
Excerpt: as §1

Assay [4] deals with methicillin resistant Staphylococcus aureus ATCC 33591. Briefly: Murine neutropenic thigh model. The assay is classed as in vivo. The settings on record: neutropenic CF1 mice. How it is done: A S. aureus ATCC 33591 culture was grown to log phase overnight and diluted in phosphate buffered saline (pH 7.2) to an optical density of about 0.1 at 600 nm, giving an approximate concentration of 10^8 cfu/mL. The suspension was diluted 1:100 in phosphate buffered saline (pH 7.2) for a final concentration of 10^6 cfu/mL.
Outbred female CFI mice (approx. 20 gram body weight) were rendered netutropenic by treatment with cyclophosphamide (200 mg/kg body weight, intraperitoneal injection) at 2 and 4 days prior to inoculation. Groups of 5 mice were inoculated with 0.05 mL of the bacteria (approx. 10^6 cfu/mL) into the anterior thigh. Each group was treated intravenously two hours post infection with vehicle (phosphate buffered saline) or test compound. The mice were sacrificed at either 6 or 24 hrs after treatment and thighs were collected aseptically. Each thigh was weighed, placed into sterile saline, and homogenized. The tissue homogenates were diluted appropriately for plating on agar plates. Colony counts were recorded (cfu/gram) and compared to control groups.

Assay [5] addresses target sequence GACAATTAATCA (352 bp fragment, Plasmid C). Put plainly: Quantitative DNase I footprint titration. In kind it is binding. Conditions: 352 bp C, 22° C., pH 7.0, read-out: Dissociation Constant Kd. The text has this: (§2) Compounds (1) through (20) according to this invention were screened for their ability to bind to specified DNA target sequences, using DNase I footprinting. Generally, the procedure described in Dervan, WO 98/50582 (1998), was followed.
(§3) Three double stranded circular plasmids A, B, and C were used to prepare double stranded DNA-binding probes containing the target sequences for the DNase I footprint titration experiments. Plasmids A, B, and C had nucleotide sequences given by SEQ ID NO. I, SEQ ID NO. II, and SEQ ID NO. III, respectively.
(§4) The 3′-P32 end-labeled EcoRI/PvuII fragments from each plasmid were prepared by digesting the plasmids with EcoRI and PvuII with simultaneous fill-in using Sequenase v. 2.0, [alpha-P32]-deoxyadenosine-5′-triphosphate, and [alpha-P32]-thymidine-5′-triphosphate, and isolating the cloned fragments by nondenaturing gel electrophoresis. A and G sequencing reactions were carried out as described (See Maxam and Gilbert, Methods Enzymol., 1980, 65, 499-560; Iverson and Dervan, Methods Enzymol., 1987, 15, 7823-7830; Sambrook et al., 1989, Molecular Cloning, 2nd ed., Cold Spring Harbor Laboratory Press: Cold Spring Harbor, N.Y.) Standard methods were used for all DNA manipulations (Sambrook et al., ibid.) The cut sites for EcoRI and PvuII are indicated by bars in the respective maps of Plasmids A, B, and C in FIGS. 5, 6, and 7.
(§5) The 351 base pair dsDNA restriction fragment (SEQ ID NO. IV) of Plasmid A contained the target sequences AAAAAGCAAAAA, AAAAAGACAAAAA, and AAAAAGTACAAAAA. The 310 base pair dsDNA restriction fragment (SEQ ID NO. V) of Plasmid B contained the target sequences AGTACT, AATACT, and ATTACT. The 352 base pair dsDNA restriction fragment (SEQ ID NO. VI) of Plasmid C contained the target sequences TGACAATTAAT, GACAATTAATCA, AATTAATCAT, ACAATTA, and ACAATTAAT. These fragments were used for quantitative DNase I footprinting experiments. Compounds used in the method of this invention bind to at least one of the target sites with a equal to or less than 100 nM, preferably equal to or less than 50 nM, and more preferably equal to or less than 20 nM. The target sequences were selected for the identity with, or similarity to, promoter sites for bacterial genes.
(§6) Quantitative DNase I footprint titration experiments were carried out as described previously (Dervan, WO 98/50582, 1998) with the following changes. All reactions were carried out in a total volume of 400 μL, with compound stock solution or water added to 15,000 cpm radiolabeled restriction fragment affording final solution conditions of 10 mM Tris HCl, 10 mM KCl, 10 mM MgCl2, 5 mM CaCl2, pH 7.0 and 0.01 nM, 0.1 nM, 1.0 nM, 10.0 nM compound or no compound for reference lanes. The compounds were allowed to equilbrate at 22° C. for 16 h. Footprinting reactions were initiated with addition of 10 μL of a DNase I stock solution (at the appropriate concentration to give ˜50% intact DNA) containing 1 mM DTT and allowed to proceed for 7 min at 22° C. The reactions were stopped, ethanol precipitated, resuspended in loading buffer, heat denatured, and placed on ice as described previously (Dervan WO 98/50582, 1998). The reaction products were separated on a precast 8% polyacrylamide denaturing sequencing Castaway gel with 32 preformed wells from Stratagene in 1×TBE at 2000 V. Gels were dried according to the manufacturer and exposed to a storage phosphor screen (Molecular Dynamics). Quantitation and data analysis were carried out as described in Dervan, WO 98/50582, 1998.

Assay [6] has as its target target sequence ACAATTAAT (352 bp fragment, Plasmid C). Briefly: Quantitative DNase I footprint titration. The assay is classed as binding. Conditions: 352 bp C, 22° C., pH 7.0, read-out: Dissociation Constant Kd.
Excerpt: as §2, §3, §4, §5, §6

The target in assay [7] is target sequence AATTAATCAT (352 bp fragment, Plasmid C). Briefly: Quantitative DNase I footprint titration. The assay is classed as binding. The settings on record: 352 bp C, 22° C., pH 7.0, read-out: Dissociation Constant Kd.
Excerpt: as §2, §3, §4, §5, §6

Assay [8] concerns the target target sequence AGTACT (310 bp fragment, Plasmid B). Put plainly: Quantitative DNase I footprint titration. The settings on record: 310 bp B, 22° C., pH 7.0, read-out: Dissociation Constant Kd. The assay is classed as binding.
Excerpt: as §2, §3, §4, §5, §6

In assay [9] the test system is methicillin resistant Staphylococcus aureus ATCC 33591. Put plainly: Mouse protection assay. In kind it is in vivo. Conditions: balb/c mice, 50 mg/kg intravenously at 2, 8, 18 and 24 hours post infection; vehicle 14. How it is done: A S. aureus ATCC 33591 culture was grown to log phase overnight and diluted in phosphate buffered saline (pH 7.2) to an optical density of about 0.1 at 600 nm, giving an approximate concentration of 10^8 cfu/mL. Porcine mucin was added to the suspension to a final concentration of 5% mucin. The suspension was diluted 1:100 for a final concentration of 10^6 cfu/mL.
Female balb/c mice (20 g body weight) were injected intraperitoneally with 0.5 mL of bactenal suspension (10^6 cfu/mL). Vehicle (phosphate buffered saline, pH 7.2) or test compound were administered intravenously at 2, 8, 18, and 24 hours post infection. The animals were monitored twice daily and survival counts were recorded up to 48 hours post infection.

Molecules are shown by their SMILES. Some results are limits rather than exact numbers.

Usually Kd stands for a measure of binding affinity in units of concentration. Regarding `Cn1cc(NC(=O)c2cc(NC(=O)c3cc(NC(=O)c4sc5ccccc5c4Cl)c[nH]3)cn2C)cc1C(=O)NCCN1CCOCC1` [Compound 9], the “Minimum Inhibitory Concentration (MIC)” value is “++ (++ = MIC ≦ 1)” in the assay on S. aureus ATCC 27660; “++ (++ = MIC ≦ 1)” in the assay on S. aureus ATCC 33591; “+ (+ = MIC ≦ 2)” in the assay on S. aureus ATCC 43300; “+ (+ = MIC ≦ 2)” in [1]; “++ (++ = MIC ≦ 1)” in assay [2]; over 32 µg/mL in assay [3]. Moreover, the “Colony Count” value in assay [4] (80 mg/kg intravenously 2 h post infection, 6 hr after treatment, vehicle 7.83) turned out to be 6.17 log cfu/gram. In assay [5], the equilibrium dissociation constant (Kd) is 0.1 nM.

`Cn1cc(NC(=O)c2cc3ccccc3cn2)cc1C(=O)Nc1cc(C(=O)Nc2cc(C(=O)NCCN3CCCCC3)ns2)n(C)c1` [Compound 19]: the “Minimum Inhibitory Concentration (MIC)” value with S. aureus ATCC 27660 is “++ (++ = MIC ≦ 1)”; in the assay on S. aureus ATCC 33591, “+ (+ = MIC ≦ 2)”; in assay [1] it was “++ (++ = MIC ≦ 1)”; in [2] it was “++ (++ = MIC ≦ 1)”; in [3] it was over 32 µg/mL. For the same molecule, the dissociation constant Kd in [6] was 1 nM.

With `Cn1cc(NC(=O)c2cc3ccccc3cn2)cc1C(=O)Nc1cc(C(=O)Nc2cc(C(=O)NCCN3CCOCC3)n(CCN3CCOCC3)c2)n(C)c1` [Compound 17], the “Minimum Inhibitory Concentration (MIC)” value with S. aureus ATCC 27660 was “++ (++ = MIC ≦ 1)”; in the assay on S. aureus ATCC 33591, “− (− = MIC > 2)”; in [1], “++ (++ = MIC ≦ 1)”; in assay [2], “++ (++ = MIC ≦ 1)”; in assay [3], over 32 µg/mL. Besides, the dissociation constant (Kd) in [7] was 5 nM; in assay [8], under 100 nM.

For the molecule `Cn1cc(NC(=O)c2cc(NC(=O)c3cc(NC(=O)c4cc5ccccc5cn4)no3)cn2C)cc1C(=O)NCCN1CCOCC1` [Compound 20], the MIC in the assay on S. aureus ATCC 27660 (Staphylococcus aureus, read-out: Minimum Inhibitory Concentration (MIC)) was at most 1 µg/mL; in assay [3] (Candida albicans, ATCC38247, read-out: Minimum Inhibitory Concentration (MIC)), over 32 µg/mL. The Kd in assay [7] turned out to be 5 nM; in [8], 10 nM.

Turning to `Cn1cc(NC(=O)c2cc(NC(=O)c3cc(NC(=O)c4sccc4Cl)cn3C)cn2C)cc1C(=O)NCCN1CCOCC1` [Compound 6], the “Minimum Inhibitory Concentration (MIC)” value is “+ (+ = MIC ≦ 2)” with S. aureus ATCC 33591, “− (− = MIC > 2)” in the assay on S. aureus ATCC 43300, “++ (++ = MIC ≦ 1)” in [1] and over 32 µg/mL in assay [3]. In addition, the “Survival at 48 hrs” value in assay [9] was 86%. Further, the dissociation constant (Kd) in [7] was determined as 20 nM.

As for `Cn1cc(NC(=O)c2sccc2Cl)cc1C(=O)Nc1cc(-c2nc3ccc(C(=O)NCCN4CCOCC4)cc3[nH]2)n(C)c1` [Compound 12], the “Minimum Inhibitory Concentration (MIC)” value with S. aureus ATCC 27660 was “++ (++ = MIC ≦ 1)”; with S. aureus ATCC 33591, “− (− = MIC > 2)”; in assay [1], “++ (++ = MIC ≦ 1)”; in [2], “++ (++ = MIC ≦ 1)”; in [3], over 32 µg/mL. In addition, the “Colony Count” value in [4] (50 mg/kg intravenously 2 h post infection, 24 hr after treatment, vehicle 8.03) is listed as 6.96 log cfu/gram. In addition, the Kd in assay [5] is at most 0.1 nM.

On to `Cn1cc(NC(=O)c2cc(NC(=O)c3cc(NC(=O)c4cc5ccccc5cn4)cn3C)cn2C)cc1C(=O)NCCc1cccnc1` [Compound 14], for which the “Minimum Inhibitory Concentration (MIC)” value was “++ (++ = MIC ≦ 1)” in the assay on S. aureus ATCC 27660; “− (− = MIC > 2)” with S. aureus ATCC 33591; “− (− = MIC > 2)” in [1]; “+ (+ = MIC ≦ 2)” in [2]; over 32 µg/mL in [3]. Also, the Kd in assay [6] was 5 nM.
